# Values of other authors in publication PMC3547486 (ACS Chemical Neuroscience, 2012).
# Tested on: 5-HT release
smiles,measurement,value
"Clc1cccc(N2CCNCC2)c1 [mCPP, m-chlorophenylpiperazine]",5-HT releasing activity (in words),potent 5-HT releaser
